This is an account of results in PMC11876601 (Molecular Systems Biology, 2025).

The test system of assay [1] is TBKBP1. Also on record: method as in Klaeger et al. (2017). To be noted: lysate 4 cell line mix (Colo205, K-562, MV-4-11, and SK-N-BE(2)), Kinobeads y, ref Klaeger et al. (2017); cited from earlier work.
The test system of assay [2] is ERN2. Also on record: method as in Klaeger et al. (2017). To be noted: ERN2, 4 cell line mix lysate, Kinobeads y, ref Klaeger et al. (2017); cited from earlier work.
Assay [3] has as its system AZI2. To be noted: AZI2, 5 cell line mix lysate, Kinobeads ε, ref Reinecke et al. (2023), cited from earlier work.
Assay [4] concerns CLK4. Also noted: method as in Reinecke et al. (2023). As to conditions: CLK4, 5 cell line mix lysate, Kinobeads ε, ref Reinecke et al. (2023), cited from earlier work.
Assay [5] has as its system YES1. Also on record: method as in Reinecke et al. (2023). As to conditions: YES1, 5 cell line mix lysate, Kinobeads ε, ref Reinecke et al. (2023), cited from earlier work.
The subject of assay [6] is NUAK2. Also on record: method as in Reinecke et al. (2023). To be noted: NUAK2, 5 cell line mix lysate, Kinobeads ε, ref Reinecke et al. (2023), cited from earlier work.
The target in assay [7] is INSR. Also on record: method as in Reinecke et al. (2023). As to conditions: 5 cell line mix lysate, Kinobeads ε, ref Reinecke et al. (2023), cited from earlier work.
For assay [8], the system named is TBKBP1. As to conditions: TBKBP1, 5 cell line mix lysate, Kinobeads ε, ref Reinecke et al. (2023), cited from earlier work.
Assay [9] deals with IKBKE. To be noted: 5 cell line mix lysate, Kinobeads ε, ref Reinecke et al. (2023), cited from earlier work.
For assay [10], the target named is CSNK2B. To be noted: 5 cell line mix lysate, Kinobeads ε, ref Reinecke et al. (2023), cited from earlier work.
The subject of assay [11] is PDO B535. Briefly: PDO viability assay (CellTiter-Glo, 72 h). To be noted: for pEC50: single replicates R1-R8. It counts as cell-based, human. The procedure: Primary patient-derived PDAC organoid (PDO) experiments were performed in the laboratories of Prof. Maximilian Reichert (University Hospital of the TU Munich, Germany, PDO set 1: B250, B535, B678) and Prof. Jens T. Siveke (University Hospital Essen, Germany; PDO set 2: UME008, UME012, UME051, UME053, UME060, UME061). PDOs were generated from surgical resection, EUS-guided fine needle biopsy (EUS-FNB), or ascites (Appendix Table S2). Surgical specimens were first minced with a sterile scalpel and subsequently washed with Anti-Anti solution and washing medium (PDO set 1), or vice versa (PDO set 2; Appendix Table S3). Biopsy samples were directly washed with an Anti-Anti solution and washing medium. Samples were digested using 1 ml of digestion medium at 37 °C while shaking, and the enzymatic reaction was stopped by adding 15 ml of washing medium (Appendix Table S3). If samples of PDO set 1 were blood-stained, tissue pellets were first incubated with ACK lysing buffer/red blood cells lysis buffer (Thermo Fisher Scientific) for 5 min and then digested using TrypLE (Thermo Fisher Scientific). The reversed procedure was applied for blood-stained samples of PDO set 2. For PDO generation from ascites, the material was first spun down at 500 × g for 5 min. Then, washing medium was added and the suspension was centrifuged at 300 × g for 5 min. If the pellet was blood-stained, ACK lysis buffer was added and incubated at room temperature.
For viability assays in PDOs, confluent organoids were removed from medium, and Matrigel was dissolved by adding 200 μl (PDO set 1) or 2 ml (PDO set 2) of Cell Recovery Solution (Corning), and additionally 500 μl of DPBS (PDO set 1 only). Samples were transferred into a falcon and incubated on ice for 30 min, followed by centrifugation at 300 × g at 4 °C for 5 min (after adding 10 ml washing medium for PDO set 2). Subsequently, TrypLE Express Enzyme (Thermo Fisher) was added to cell pellets and incubated for 2 × 5 min at 37 °C. The enzymatic reaction was quenched by DPBS (PDO set 1) or washing medium (PDO set 2), and samples were washed by centrifugation at 300 × g at 4 °C for 5 min. Five hundred cells/well were seeded in 384-well plates (Corning) in 50 μl of PDO medium containing 10% Matrigel. To allow PDO generation, cells were incubated for 4 days at 37 °C and 5% CO2. […] Experiments were pipetted manually (PDO set 1) or automatically using a TECAN D300e Digital Dispenser (HP; PDO set 2). Treatments were performed in eight replicates, except for PDO PPES045 (quadruplicates). After 72 h, cell viability was measured using the CellTiter-Glo Luminescent Cell Viability Assay (Promega) diluted 1:5 in the final volume of the well. After 20 min of incubation at room temperature under gentle shaking, the acquisition was performed in the microplate reader VantaSTAR (BMG Labtech) using 3000 gain for the amplification measurement of a detected signal (PDO set 1) or the Spark Multimode microplate reader (TECAN) at 800 ms integration time (PDO set 2).
A general note: Cellular ATP, detected with luciferase, serves as a proxy for viable cell number.

Values joined by “and” are separate entries in the source; they are usually repeats but may differ in a detail not shown here. Equal values may be shown once. Read-outs that look alike come from different tables or passages of the source.

As for `C[C@]12O[C@H](C[C@]1(O)CO)n1c3ccccc3c3c4c(c5c6ccccc6n2c5c31)CNC4=O` [Lestaurtinib], the EC50 (in general, the concentration that produces a half-maximal response) is 1010 nM in [1] and 373 nM in [2].
Consider `COc1cc(N2CCC(N3CCN(C)CC3)CC2)ccc1Nc1ncc(Cl)c(Nc2ccccc2P(C)(C)=O)n1` [Brigatinib], for which the EC50 is 1120 nM in assay [3]; 49.2 nM in assay [4]; 821 nM in assay [5]; 88.5 nM in [6]; 1750 nM in assay [7]; 940 nM in assay [8]. For the same molecule, the figures for the EC50 in [9] and in assay [10] were 4060 nM and 508 nM, respectively. Besides, the pKDapp in [3] was 6.10; in assay [4], 7.38; in assay [5], 6.47; in assay [6] it was 7.17; in assay [7] it was 5.88; in assay [8], 6.13. The values for the pKDapp in assay [9] and in [10] were 5.60 and 6.29, respectively. Moreover, the Kd in assay [3] (read-out: KDapp) was 789 nM; in assay [4] (read-out: KDapp), 41.6 nM; in assay [5] (read-out: KDapp), 339 nM; in [6] (read-out: KDapp) it was 68.3 nM; in assay [7] (read-out: KDapp), 1320 nM; in [8] (read-out: KDapp) it was 746 nM. Further, the Kd in [9] (read-out: KDapp) is 2520 nM; in assay [10] (read-out: KDapp), 508 nM.
For the molecule `Nc1ccn([C@@H]2O[C@H](CO)[C@@H](O)C2(F)F)c(=O)n1` [GEM, Gemcitabine], the pEC50 (as a rule, the negative decadic logarithm of the EC50, by convention in mol/L) is 8.39 and 8.78 and 8.35 and 8.91 in assay [11] (Experiment GEM (GEM alone)); 8.24 and 8.20 and 8.63 and 8.99 and 8.75 and 8.16 in [11] (Experiment GEM+ATRi_dose1 (ATRi = Elimusertib)); 9.08 and 8.91 and 9.48 and 9.75 and 9.91 and 9.06 in assay [11] (Experiment GEM+ATRi_dose3 (ATRi = Elimusertib)). Further, the EC50 in [11] (Experiment GEM (GEM alone), single replicates R1-R8, read-out: EC50) was 4.05 nM and 1.64 nM and 2.44 nM and 4.43 nM and 1.23 nM; in assay [11] (Experiment GEM+ATRi_dose1 (ATRi = Elimusertib), single replicates R1-R8, read-out: EC50) it was 5.81 nM and 6.33 nM and 3.06 nM and 2.33 nM and 1.02 nM and 1.78 nM and 6.97 nM; in [11] (Homo sapiens, Experiment GEM+ATRi_dose1 (ATRi = Elimusertib), mean of replicates, read-out: EC50 mean) it was 3.9 nM; in [11] (Homo sapiens, Experiment GEM+ATRi_dose3 (ATRi = Elimusertib), mean of replicates, read-out: EC50 mean) it was 0.59 nM.
